What all share (assay type): in vivo
The subject of assay [1] is systolic blood pressure. Description: systolic blood pressure in spontaneously hypertensive rats. Conditions: SHR rats; for Δ SP, change in systolic blood pressure: 14 days, 600 mg/kg every 12 hours, basal 216 mmHg; for drops in systolic blood pressure: 14-day treatments with 600 mg/kg. The source says: Metabolic and cardiovascular pathologies are closely related. The overfeeding which characterises our society not only gives rise to problems of obesity and excess weight. It is also linked to the appearance of diabetes, dyslipidaemia, hypertension, strokes, arteriosclerosis, ictus, etc. All of these pathologies increase the risk of premature death and can even cause death. In this sense, certain natural oils show a certain efficacy against this type of pathologies, but their power is limited. In contrast, the molecules of the invention have an important effect against the development of this type of pathologies. To be able to study the effects of the compounds of the invention for the prevention and treatment of metabolic and cardiovascular pathologies, hypertensive rats were used (SHR strain, spontaneously hypertensive rats). These rats present obesity, high blood pressure, dyslipidaemia (hypercholesterolemia and hypertriglyceridemia), diabetes, metabolic syndrome and other related health problems. Hypertensive rats of the SHR strain (spontaneously hypertensive rats) with an approximate weight of 300 grams were treated with TGM1 during 9 days (400 mg/kg, every 12 h, p.o.). Systolic pressure was measured before starting the treatment (basal) and 9 days later. In these animals with a metabolic/cardiovascular pathology, this treatment with TGM1 produced drops in blood pressure of approximately 25 mmHg, while the 14-day treatments with 600 mg/kg of TGM1 induced even greater drops in systolic blood pressure of up to 37 mmHg for TGM1 and up to 52 mmHg for TGM6 (FIG. 4 and Table 3). […] [table]

Assay [2] deals with cholesterol in plasma. Put plainly: plasma cholesterol in SHR rats. Conditions: p.o.; for Chol, levels of total cholesterol in plasma: 6 days, 400 mg/kg. The source says:
Metabolic and cardiovascular pathologies are closely related. The overfeeding which characterises our society not only gives rise to problems of obesity and excess weight. It is also linked to the appearance of diabetes, dyslipidaemia, hypertension, strokes, arteriosclerosis, ictus, etc. All of these pathologies increase the risk of premature death and can even cause death. In this sense, certain natural oils show a certain efficacy against this type of pathologies, but their power is limited. In contrast, the molecules of the invention have an important effect against the development of this type of pathologies. To be able to study the effects of the compounds of the invention for the prevention and treatment of metabolic and cardiovascular pathologies, hypertensive rats were used (SHR strain, spontaneously hypertensive rats). These rats present obesity, high blood pressure, dyslipidaemia (hypercholesterolemia and hypertriglyceridemia), diabetes, metabolic syndrome and other related health problems. Also, SHR rats were used to research the efficacy of the hydroxy-triglycerides for the prevention and treatment of dyslipidaemias. On the one hand, treatments with different oral doses and durations gave rise to reductions in the plasma levels of total cholesterol and its fractions in test animals (Tables 5 and 6). These reductions were marked and significant, returning the cholesterol in plasma values to those found in animals without metabolic/cardiovascular disorders. […] [table] [table]

For assay [3], the system named is transgenic rat with 5 mutations of human familial Alzheimer's (Tag). Description: radial maze test in transgenic rats with Alzheimer's. The note with it: for Errors made in the radial maze: Tag rats, 50 mg/kg p.o. daily, 100% = healthy animals without Alzheimer's. The method, then: In order to study Alzheimer's disease a transgenic rat model was used with 5 mutations which appear in human familiar Alzheimer's (symbolised as Tag, and abbreviated Tg). This model of Alzheimer's is very severe, and the animals already show a cognitive deficit at 2 months of age. To carry out this experiment, both young rats (of 3 months of age) and aged rats (of 10 months of age) were used and treated for 3 months with the hydroxy-triglycerides of the present invention (50 mg/kg day, p.o.). The rats were subjected to a low-calorie diet so that they would be hungry and carry out a test in a radial maze, in which food was placed in 4 of the device's 8 arms (asymmetrically), quantifying the number of errors committed until the exercise was completed. […]
The control animals were treated with vehicle (saline) and the rest with 50 mg/kg (p.o.) daily of the indicated compound.

The subject of assay [4] is Drosophila melanogaster flies with human Alzheimer's genes (F1). Description: survival of Drosophila melanogaster with Alzheimer's disease. Conditions: 100 μM in the food. The source says:
To investigate the effect of TGMs on the cognitive parameters and aging, another model of Alzheimer's disease in Drosophila melanogaster flies with genetic alterations corresponding to human Alzheimer's was used. The flies used were the first generation (F1) from the crossing of UAS-Aβ human-Tau 2N4R (stock 33771) flies with elav-GAL4^c155 (stock 8760) flies. This model which over-expresses the two proteins typical of Alzheimer's disease is complementary to the model described above and very convenient, as these animals have a life of approximately 1 month and it is possible to add the compounds to the food of the larvae to see the preventative effect thereof throughout their entire life. Also, it allows the effect on aging to be seen and on the life expectancy of these animals (survival over time).
In this sense, the flies with human Alzheimer's (F1) present a greater cognitive decline in comparison to the “Oregon” fly strain, which are the healthy controls. To evaluate the effect of the hydroxy-triglycerides of the invention, each one of the TGMs (100 μM) was added to the food consumed by these animals. It was possible to observe a positive effect of same in the geotaxis test of climbing (FIG. 7B and Table 11). In this test, the behavioural motor activity was investigated in 25 flies treated with vehicle or one of the TGMs. In this study, the flies were introduced in a glass cylinder with an opening closed with a sponge so air could enter. The flies were taken to the ground (bottom) of the pipe by giving it a sharp blow on a table and their behaviour was timed during 20 seconds. Once this time was over, the number of flies which had passed (crossed) a mark at 15 cm from the bottom was counted (geotaxis test). Usually, more than 90% of healthy young flies passed the line within 20 seconds. However, with aging or with Alzheimer's disease, the behavioural motor activity (percentage of flies which crossed the line) declined, compared to normal flies. In this context, the treatments with the hydroxy-triglycerides of the present invention avoided this cognitive decline associated to Alzheimer's, making the cognitive capacity of the diseased flies similar to that of the healthy flies. […] This positive effect on the cognitive parameters in flies was also shown by other TGMs (Table 11). In fact, in the control group with Alzheimer, no fly crossed the line as of 23 days of age. In this sense, the different hydroxy-triglycerides induced marked increases in the geotaxis test values, with increases in the cognitive values which reached up to 36 days, 50% more in the life of the flies with Alzheimer's (Table 11).

The values below come from patent US10047036B2, “Method for the synthesis of hydroxy-triglycerides and uses thereof for the prevention and treatment of diseases” (UNIVERSITAT DE LES ILLES BALEARS, priority 2014, dated 2018).

Take `CCCCCC(O)C(=O)OCC(COC(=O)C(O)CCCCC)OC(=O)C(O)CCCCC` (stereo not drawn) [TGM0, 1,2,3-tri(2′-hydroxyheptanoyl)glycerol]: the “Δ SP, change in systolic blood pressure” value in assay [1] (p.o.) is reported as −8 mmHg. Besides, the “Chol, levels of total cholesterol in plasma” value (from here on “Chol, levels”) in assay [2] amounted to 62.2 ± 3 mg/dL. In assay [3], the “Errors made in the radial maze” value amounted to 153.1%. Further, in assay [4], the “Survival: age at which all the animals in the group died” value (shortened to “Survival: age at which all the animals”) was found to be 30 days.
Regarding `CCCCCCCCC=CCCCCCCC(O)C(=O)OCC(COC(=O)C(O)CCCCCCC=CCCCCCCCC)OC(=O)C(O)CCCCCCC=CCCCCCCCC` (stereo not drawn) [TGM1, 1,2,3-tri(2′-hydroxy-octadec-9′-enoyl)glycerol], the “drops in systolic blood pressure” value in assay [1] is “up to 37 mmHg”. Further, in assay [1] (9 days, 400 mg/kg every 12 h, p.o.), the “drops in blood pressure” value is “approximately 25 mmHg”. For the same molecule, the “Δ SP, change in systolic blood pressure” value in assay [1] (p.o.) is on record as −37 mmHg. Also, in assay [2], the “Chol, levels” value came out at 55.5 ± 2 mg/dL. Further, in assay [2] (14 days, 600 mg/kg, 12 h), the HDL in plasma came to 33.44 ± 2.251 mmHgmg/dl, the LDL in plasma is given as 3.644 ± 0.3244 mmHgmg/dl and the “Total cholesterol in plasma” value is listed as 49.11 ± 3.084 mmHgmg/dl. In assay [3], the “Errors made in the radial maze” value was found to be 128.9%. Moreover, the “Survival: age at which all the animals” value in assay [4] is 45 days.
Take `CCCCCC=CCC=CCCCCCCC(O)C(=O)OCC(COC(=O)C(O)CCCCCCC=CCC=CCCCCC)OC(=O)C(O)CCCCCCC=CCC=CCCCCC` (stereo not drawn) [TGM2, 1,2,3-tri(2′-hydroxy-octadec-9′,12′-dienoyl)glycerol]: the “Δ SP, change in systolic blood pressure” value in assay [1] (p.o.) is given as −41 mmHg. The “Chol, levels” value in assay [2] worked out at 51.7 ± 2 mg/dL. The “Errors made in the radial maze” value in assay [3] was 143.2%. Also, the “Survival: age at which all the animals” value in assay [4] came to 33 days.
Consider `CCC=CCC=CCC=CCCCCCCC(O)C(=O)OCC(COC(=O)C(O)CCCCCCC=CCC=CCC=CCC)OC(=O)C(O)CCCCCCC=CCC=CCC=CCC` (stereo not drawn) [TGM3A, 1,2,3-tri(2′-hydroxy-octadec-9′,12′,15′-trienoyl)glycerol], for which, in assay [1] (p.o.), the “Δ SP, change in systolic blood pressure” value is −28 mmHg. Besides, in assay [2], the “Chol, levels” value was 49.8 ± 2 mg/dL. In addition, the “Errors made in the radial maze” value in assay [3] is reported as 134.5%. Also, in assay [4], the “Survival: age at which all the animals” value amounted to 40 days.
For `CCCCCC=CCC=CCC=CCCCC(O)C(=O)OCC(COC(=O)C(O)CCCC=CCC=CCC=CCCCCC)OC(=O)C(O)CCCC=CCC=CCC=CCCCCC` (stereo not drawn) [TGM3G, 1,2,3-tri(2′-hydroxy-octadec-6′,9′,12′-trienoyl)glycerol], in that order: −21 mmHg, 65.1 ± 4 mg/dL, 156.8% and 31 days.
Turning to `CCCCCC=CCC=CCC=CCC=CCCC(O)C(=O)OCC(COC(=O)C(O)CCC=CCC=CCC=CCC=CCCCCC)OC(=O)C(O)CCC=CCC=CCC=CCC=CCCCCC` (stereo not drawn) [TGM4, 1,2,3-tri(2′-hydroxy-eicosa-5′,8′,11′,14′-tetraenoyl)glycerol], in assay [1] (p.o.), the “Δ SP, change in systolic blood pressure” value is listed as −43 mmHg. The “Chol, levels” value in assay [2] turned out to be 72.7 ± 2 mg/dL. For the same molecule, the “Errors made in the radial maze” value in assay [3] is 101.0%. In addition, the “Survival: age at which all the animals” value in assay [4] turned out to be 44 days.
Regarding `CCC=CCC=CCC=CCC=CCC=CCCC(O)C(=O)OCC(COC(=O)C(O)CCC=CCC=CCC=CCC=CCC=CCC)OC(=O)C(O)CCC=CCC=CCC=CCC=CCC=CCC` (stereo not drawn) [TGM5, 1,2,3-tri(2′-hydroxy-eicosa-5′,8′,11′,14′,17′-pentaenoyl)glycerol], in assay [1] (p.o.), the “Δ SP, change in systolic blood pressure” value is reported as −40 mmHg. In assay [2], the “Chol, levels” value turned out to be 58.4 ± 3 mg/dL. The “Errors made in the radial maze” value in assay [3] is 121.3%. For the same molecule, in assay [4], the “Survival: age at which all the animals” value came to 31 days.
For `CCC=CCC=CCC=CCC=CCC=CCC=CCC(O)C(=O)OCC(COC(=O)C(O)CC=CCC=CCC=CCC=CCC=CCC=CCC)OC(=O)C(O)CC=CCC=CCC=CCC=CCC=CCC=CCC` (stereo not drawn) [TGM6, 1,2,3-tri(2′-hydroxy-docosa-4′,7′,10′,13′,16′,19′-hexanoyl)glycerol], the “drops in systolic blood pressure” value in assay [1] is recorded as “up to 52 mmHg”. Moreover, the “Δ SP, change in systolic blood pressure” value in assay [1] (p.o.) is recorded as −52 mmHg. Moreover, the “Chol, levels” value in assay [2] worked out at 48.9 ± 3 mg/dL. Further, the “Errors made in the radial maze” value in assay [3] was 84.7%. Also, the “number of errors in the radial maze (FIG. 7A)” value in assay [3] (young and aged Tg rats, 3 months, 50 mg/kg day p.o., errors of first week of tests = 100%) was “below 100%”. Also, the “Survival: age at which all the animals” value in assay [4] turned out to be 39 days.
